{"source": "patent US7135615B2", "about": "“Chromosome doubling method” (The Curators of the University of Missouri, priority 2001, dated 2006)", "key": {"[1]": {"system": "maize haploid seedlings of origin B55", "assay": "doubled haploid production trial, B55 haploids (Example 4)", "conditions": "for Ear: Plants with kernels after selfing % / Tassel: No. of fertile anthers extruded/tassel / Tassel: No. of fertile sectors/tassel / Tassel: Plants with fertile sectors % / Ear: Plants with kernels after selfing No. / Tassel: Plants with fertile sectors No. / No. of plants Survived / Ear: No. of kernels produced/ear: B55 haploids, 600 kPa, 2 days; for Ear: No. of kernels produced/ear: selfed", "description": "(§1) Ten to nineteen plants were treated for each plot. Self pollinations were conducted on these treated haploids if there were fertile sectors on the tassel. Pollen grains were collected carefully on a sheet of paper and transferred to the silks repeatedly. Silks and husks were cut back prior to pollination in order to permit maximum seed set. The numbers of fertile tassel and ear sectors, as well as the numbers of anthers and selfed kernels were recorded. Statistical analyses were as described above."}, "[2]": {"system": "flowers of grasses; maize haploids", "assay": "nitrous oxide procedure, general statement of doubling and selfing rates", "type": "in vivo, maize (Zea mays L.)", "source_text": "The technique results from studies carried out for the development of a high-yield technique for chromosome doubling in grasses and particularly, in maize. The new procedure induces doubled sectors on the flowers of grasses at a high rate (50–100%) without injuring seedlings. […] With the technique, large number of plants (1000/day) can be treated by one person. In maize haploids, doubled sectors are induced both on the tassels and ears and self pollination is possible at 30–90% level, whereas no reliable procedure for chromosome doubling had previously been available."}, "[3]": {"system": "maize haploid seedlings of origin Oh43", "assay": "doubled haploid production trial, Oh43 haploids (Example 4)", "conditions": "for Ear: Plants with kernels after selfing % / Tassel: No. of fertile anthers extruded/tassel / Tassel: Plants with fertile sectors % / Ear: Plants with kernels after selfing No. / Tassel: Plants with fertile sectors No. / No. of plants Survived / Ear: No. of kernels produced/ear: 600 kPa, 2 days; for Ear: No. of kernels produced/ear: selfed", "description": "as §1"}, "haploid seedlings": {"system": "haploid seedlings", "assay": "survival of haploid seedlings treated with nitrous oxide gas (all experiments)", "type": "in vivo, maize (Zea mays L.)", "conditions": "450 haploid seedlings treated", "description": "The germinated seeds were transferred to small plastic pots filled with ProMix, a peat moss based growing medium (Hummert, St. Louis, Miss.). The seedlings were grown in a greenhouse for one to four weeks. Stock 6 induced 1–5 putative haploid kernels per ear (purple kernel with white embryo or yellow kernel with purple embryo) on all genotypes. A total of 715 putative haploid kernels were planted for the experiments. Most of them (94%) were determined to be haploid from their morphology and high sterility. The remaining 4.7% were misclassified F1s, 1.1% were hypoploids, and 0.3% (one plant induced from B73 and one plant from Oh43×Mol7) were spontaneous doubled haploids. […] In a second study, fourteen out of 50 treated Oh43 haploid seedlings died from fungus attack."}, "[4]": {"conditions": "Oh43 haploids, 5 leaf stage, 14 survived"}, "[5]": {"conditions": "Oh43 haploids, 6 leaf stage, 12 survived"}, "[6]": {"conditions": "Oh43 haploids, 7 leaf stage, 10 survived"}}, "note": "Values joined by “and” are separate entries in the source; they are usually repeats but may differ in a detail not shown here. Equal entries are not always repeated. Marks after values point to notes of the source that are not given here."}
{"molecule": "[N-]=[N+]=O", "note": "[nitrous oxide gas, nitrous oxide]", "values": [{"measurement": "successful self pollination rate", "setting": "[1]; B55 haploids after nitrous oxide treatment", "result": "90–100%"}, {"measurement": "Ear: Plants with kernels after selfing %", "setting": "[1]; 5 leaf stage", "result": "60** %"}, {"measurement": "Tassel: No. of fertile anthers extruded/tassel", "setting": "[1]; 5 leaf stage", "result": "161.3** /tassel"}, {"measurement": "Tassel: No. of fertile sectors/tassel", "setting": "[1]; 5 leaf stage", "result": "1.6 /tassel"}, {"measurement": "Tassel: Plants with fertile sectors %", "setting": "[1]; 5 leaf stage", "result": "90** %"}, {"measurement": "Ear: Plants with kernels after selfing No.", "setting": "[1]; 5 leaf stage, 10 survived", "result": 6}, {"measurement": "Tassel: Plants with fertile sectors No.", "setting": "[1]; 5 leaf stage, 10 survived", "result": 9}, {"measurement": "No. of plants Survived", "setting": "[1]; 5 leaf stage, 10 treated", "result": 10}, {"measurement": "Ear: No. of kernels produced/ear", "setting": "[1]; 5 leaf stage", "result": "31.5* /ear"}, {"measurement": "Ear: Plants with kernels after selfing %", "setting": "[1]; 6 leaf stage", "result": 90, "unit": "%"}, {"measurement": "Tassel: No. of fertile anthers extruded/tassel", "setting": "[1]; 6 leaf stage", "result": "380 /tassel and 380.1** /tassel"}, {"measurement": "Tassel: No. of fertile sectors/tassel", "setting": "[1]; 6 leaf stage", "result": "4.5** /tassel"}, {"measurement": "Tassel: Plants with fertile sectors %", "setting": "[1]; 6 leaf stage", "result": "100** %"}, {"measurement": "Ear: Plants with kernels after selfing No.", "setting": "[1]; 6 leaf stage, 10 survived", "result": 9}, {"measurement": "Tassel: Plants with fertile sectors No.", "setting": "[1]; 6 leaf stage, 10 survived", "result": 10}, {"measurement": "No. of plants Survived", "setting": "[1]; 6 leaf stage, 10 treated", "result": 10}, {"measurement": "Ear: No. of kernels produced/ear", "setting": "[1]; 6 leaf stage", "result": "61.6 /ear"}, {"measurement": "Ear: Plants with kernels after selfing %", "setting": "[1]; 7 leaf stage", "result": "78** %"}, {"measurement": "Tassel: No. of fertile anthers extruded/tassel", "setting": "[1]; 7 leaf stage", "result": "401.3** /tassel"}, {"measurement": "Tassel: No. of fertile sectors/tassel", "setting": "[1]; 7 leaf stage", "result": "10.6** /tassel"}, {"measurement": "Tassel: Plants with fertile sectors %", "setting": "[1]; 7 leaf stage", "result": "100** %"}, {"measurement": "Ear: Plants with kernels after selfing No.", "setting": "[1]; 7 leaf stage, 9 survived", "result": 7}, {"measurement": "Tassel: Plants with fertile sectors No.", "setting": "[1]; 7 leaf stage, 9 survived", "result": 9}, {"measurement": "No. of plants Survived", "setting": "[1]; 7 leaf stage, 9 treated", "result": 9}, {"measurement": "Ear: No. of kernels produced/ear", "setting": "[1]; 7 leaf stage", "result": "65.6** /ear"}, {"measurement": "rate of doubled sectors induced on the flowers of grasses", "setting": "[2]; grasses, without injuring seedlings", "result": "50–100%"}, {"measurement": "level at which self pollination is possible", "setting": "[2]; maize haploids, doubled sectors on both tassels and ears", "result": "30–90%"}, {"measurement": "self pollination success rates after treatment", "setting": "[3]; Oh43 haploids", "result": "20–30%"}, {"measurement": "Ear: Plants with kernels after selfing %", "setting": "[3]; Oh43 haploids, 5 leaf stage", "result": 29, "unit": "n.s %"}, {"measurement": "Tassel: No. of fertile anthers extruded/tassel", "setting": "[3]; Oh43 haploids, 5 leaf stage", "result": "11.2* /tassel"}, {"measurement": "Tassel: Plants with fertile sectors %", "setting": "[3]; Oh43 haploids, 5 leaf stage", "result": 57, "unit": "%"}, {"measurement": "Ear: Plants with kernels after selfing No.", "setting": "[3]; [4]", "result": 4}, {"measurement": "Tassel: Plants with fertile sectors No.", "setting": "[3]; [4]", "result": 8}, {"measurement": "No. of plants Survived", "setting": "[3]; Oh43 haploids, 5 leaf stage, 19 treated", "result": 14}, {"measurement": "Ear: No. of kernels produced/ear", "setting": "[3]; Oh43 haploids, 5 leaf stage", "result": 0.6, "unit": "n.s. /ear"}, {"measurement": "Ear: Plants with kernels after selfing %", "setting": "[3]; Oh43 haploids, 6 leaf stage", "result": 17, "unit": "%"}, {"measurement": "Tassel: No. of fertile anthers extruded/tassel", "setting": "[3]; Oh43 haploids, 6 leaf stage", "result": "5.7** /tassel"}, {"measurement": "Tassel: Plants with fertile sectors %", "setting": "[3]; Oh43 haploids, 6 leaf stage", "result": "92** %"}, {"measurement": "Ear: Plants with kernels after selfing No.", "setting": "[3]; [5]", "result": 2}, {"measurement": "Tassel: Plants with fertile sectors No.", "setting": "[3]; [5]", "result": 11}, {"measurement": "No. of plants Survived", "setting": "[3]; Oh43 haploids, 6 leaf stage, 16 treated", "result": 12}, {"measurement": "Ear: No. of kernels produced/ear", "setting": "[3]; Oh43 haploids, 6 leaf stage", "result": "1.0 /ear"}, {"measurement": "Ear: Plants with kernels after selfing %", "setting": "[3]; Oh43 haploids, 7 leaf stage", "result": 10, "unit": "%"}, {"measurement": "Tassel: No. of fertile anthers extruded/tassel", "setting": "[3]; Oh43 haploids, 7 leaf stage", "result": "2.6 /tassel"}, {"measurement": "Tassel: Plants with fertile sectors %", "setting": "[3]; Oh43 haploids, 7 leaf stage", "result": "70* %"}, {"measurement": "Ear: Plants with kernels after selfing No.", "setting": "[3]; [6]", "result": 1}, {"measurement": "Tassel: Plants with fertile sectors No.", "setting": "[3]; [6]", "result": 7}, {"measurement": "No. of plants Survived", "setting": "[3]; Oh43 haploids, 7 leaf stage, 15 treated", "result": 10}, {"measurement": "Ear: No. of kernels produced/ear", "setting": "[3]; Oh43 haploids, 7 leaf stage", "result": "0.1 /ear"}, {"measurement": "Tassel: No. of fertile sectors/tassel", "setting": "[3]; in vivo", "result": "0.8 /tassel and 1.3** /tassel and 1.0 /tassel"}, {"measurement": "survived the treatment", "setting": "haploid seedlings", "result": 92, "unit": "%"}]}
